From US20030040540A1, “Bromonitrothienyldioxanes” (priority 2001, published 2003)
In brackets after ≈: the same amount, converted by molar mass.

Columns and labels:
Pseudomonas aeroginosa = assay: MIC against bacteria on Landy agar (Use Example A); assay type: cell-based; details: 3 days at 28° C., 60 to 70% relative atmospheric humidity, no colonization whatsoever; for MIC: Pseudomonas, 72 h, read-out: Minimum inhibitory concentrations Pseudomonas aeroginosa
Protocol: (§1) The MIC was determined after 3 days of storage at 28° C. and 60 to 70% relative atmospheric humidity.

Aspergillus niger = assay: MIC against fungi on malt extract agar (Use Example B); assay type: cell-based; details: 2 weeks at 28° C., 60 to 70% relative atmospheric humidity, no colonization whatsoever; for MIC: Aspergillus niger, 336 h, read-out: Minimum inhibitory concentrations Aspergillus niger
Protocol: (§2) The MIC was determined after 2 weeks of storage at 28° C. and 60 to 70% relative atmospheric humidity.

Chaetomium globusum = assay: as above; assay type: cell-based; details: 2 weeks at 28° C., 60 to 70% relative atmospheric humidity, no colonization whatsoever; for MIC: Chaetomium, 336 h, read-out: Minimum inhibitory concentrations Chaetomium globusum
Protocol: as §2

Bacillus subtilis = assay: MIC against bacteria on Landy agar (Use Example A); assay type: cell-based; details: 3 days at 28° C., 60 to 70% relative atmospheric humidity, no colonization whatsoever; for MIC: Bacillus subtilis, 72 h, read-out: Minimum inhibitory concentrations Bacillus subtilis
Protocol: as §1

Penicillium brevicaule = assay: MIC against fungi on malt extract agar (Use Example B); assay type: cell-based; details: 2 weeks at 28° C., 60 to 70% relative atmospheric humidity, no colonization whatsoever; for MIC: Penicillium, 336 h, read-out: Minimum inhibitory concentrations Penicillium brevicaule
Protocol: as §2

Row | MIC (Pseudomonas aeroginosa) | MIC (Aspergillus niger) | MIC (Chaetomium globusum) | MIC (Bacillus subtilis) | MIC (Penicillium brevicaule) | melting point | SMILES | Minimum inhibitory concentrations Aspergillus niger (Aspergillus niger) | Minimum inhibitory concentrations Chaetomium globusum (Chaetomium globusum) | Minimum inhibitory concentrations Penicillium brevicaule (Penicillium brevicaule) | Minimum inhibitory concentrations Bacillus subtilis (Bacillus subtilis) | Minimum inhibitory concentrations Pseudomonas aeroginosa (Pseudomonas aeroginosa)
1 | 750 µg/mL (≈ 3540 µM) | 1000 µg/mL (≈ 4720 µM) | 500 µg/mL (≈ 2360 µM) |  |  |  | O=[N+]([O-])C1(Br)COCOC1 [5-bromo-5-nitro-1,3-dioxane, reference compound] |  |  |  |  | 
2 | 100 µg/mL (≈ 340 µM) | 200 µg/mL (≈ 680 µM) | 100 µg/mL (≈ 340 µM) | < 40 µg/mL | < 40 µg/mL |  | O=[N+]([O-])C1(Br)COC(c2cccs2)OC1 (stereo not shown) [Example 1, 5-bromo-5-nitro-2-(2-thienyl)-1,3-dioxane] |  |  |  |  | 
3 | 100 µg/mL (≈ 304 µM) | 100 µg/mL (≈ 304 µM) | < 40 µg/mL | < 40 µg/mL | < 40 µg/mL | 55 to 57 °C | O=[N+]([O-])C1(Br)COC(c2ccc(Cl)s2)OC1 (stereo not shown) [Example 2, 5-bromo-2-(5-chloro-2-thienyl)-5-nitro-1,3-dioxane] |  |  |  |  | 
4 |  |  |  |  |  |  | O=[N+]([O-])C1(Br)COC(c2ccc(Br)s2)OC1 (stereo not shown) [Example 3] | 200 ppm | 100 ppm | <40 ppm |  | 
5 |  |  |  |  |  |  | Cc1ccc(C2OCC(Br)([N+](=O)[O-])CO2)s1 (stereo not shown) [Example 4] | 200 ppm | 100 ppm | <40 ppm |  | 
6 |  |  |  |  |  |  | Cc1ccsc1C1OCC(Br)([N+](=O)[O-])CO1 (stereo not shown) [Example 5] | 200 ppm | <40 ppm | <40 ppm |  | 
7 |  |  |  |  |  |  | O=[N+]([O-])c1ccc(C2OCC(Br)([N+](=O)[O-])CO2)s1 (stereo not shown) [Example 7] | 200 ppm | 100 ppm | <40 ppm | <40 ppm | 200 ppm
8 |  |  |  |  |  |  | O=[N+]([O-])c1sc(C2OCC(Br)([N+](=O)[O-])CO2)cc1Br (stereo not shown) [Example 8] | >400 ppm | 400 ppm | 200 ppm |  | 
